Experiments:
Adrenergic β2 = target: T1, Adrenergic β2 (Homo sapiens, UniProt P07550); assay: Adrenergic β2 mediated cAMP production in H292 cells (AlphaScreen cAMP detection); format: cell-based; design: key to β2 Int Act: fraction of formoterol maximum activity (formoterol = 1)
T1 construct: Adherent H292 cells were removed from tissue culture flasks; endogenous in cells; host or cells: H292 cells
Method in brief: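 H292 cells pre-treated 10 min with rolipram (300 μM final), then given agonist for 60 min at room temperature in HBSS/10 mM HEPES pH 7.4, 1.6% DMSO final. Lysate cAMP measured by AlphaScreen against a cAMP standard curve. Four-parameter fit gives pEC50; intrinsic activity relative to formoterol maximum.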

[1] = target: T2, recombinant human adrenergic beta 1 receptors (Homo sapiens, UniProt P08588); assay: Adrenergic β1 [125I]-Iodocyanopindolol binding; details: inhibition of [125I]-Iodocyanopindolol binding (0.036 nM); read-out: β1 bind p IC50 (converted)
T2 construct: purchased Euroscreen
T2 sequence (P08588 whole entry): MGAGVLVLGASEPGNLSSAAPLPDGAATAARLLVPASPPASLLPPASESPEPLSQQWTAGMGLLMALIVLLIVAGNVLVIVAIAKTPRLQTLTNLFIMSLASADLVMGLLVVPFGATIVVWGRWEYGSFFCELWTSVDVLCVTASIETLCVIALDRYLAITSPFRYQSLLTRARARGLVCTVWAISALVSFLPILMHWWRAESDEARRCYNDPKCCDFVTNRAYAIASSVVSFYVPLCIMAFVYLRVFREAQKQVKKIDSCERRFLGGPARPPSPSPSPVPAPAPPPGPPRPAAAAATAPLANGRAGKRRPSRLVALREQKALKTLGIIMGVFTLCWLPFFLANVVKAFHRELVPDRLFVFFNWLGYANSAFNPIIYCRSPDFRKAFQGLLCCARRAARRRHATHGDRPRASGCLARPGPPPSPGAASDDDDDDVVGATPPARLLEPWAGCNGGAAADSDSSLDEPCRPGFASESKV
Method: (§1) Membranes containing recombinant human adrenergic beta 1 receptors were obtained from Euroscreen. These were diluted in Assay Buffer (50 mM HEPES, 1 mM EDTA, 120 mM NaCl, 0.1% gelatin, pH 7.4) to provide a final concentration of membranes that gave a clear window between maximum and minimum specific binding.
Assays were performed in U-bottomed 96-well polypropylene plates. 10 μL [^125I]-Iodocyanopindolol (0.036 nM final concentration) and 10 μL of test compound (10× final concentration) were added to each test well. For each assay plate 8 replicates were obtained for [^125I]-Iodocyanopindolol binding in the presence of 10 μL vehicle (10% (v/v) DMSO in Assay Buffer; defining maximum binding) or 10 μL Propranolol (10 μM final is concentration; defining non-specific binding (NSB)). Membranes were then added to achieve a final volume of 100 μL. […] Five washes with 250 μL wash buffer (50 mM HEPES, 1 mM EDTA, 120 mM NaCl, pH 7.4) were performed at 4° C. to remove unbound radioactivity. […] The plates were sealed (TopSeal A) and filter-bound radioactivity was measured with a scintillation counter (TopCount, Packard BioScience) using a 3-minute counting protocol.
(§2) Total specific binding (B0) was determined by subtracting the mean NSB from the mean maximum binding. […]

[2] = target: T3, recombinant human Dopamine Subtype D2s receptors (Homo sapiens, UniProt P14416); assay: Dopamine D2 [3H]-spiperone binding; details: inhibition of [3H]-spiperone binding (0.16 nM); read-out: D2 bind pIC50 (converted)
T3 construct: purchased Perkin Elmer
T3 sequence (P14416 1-414 isoform P14416-2): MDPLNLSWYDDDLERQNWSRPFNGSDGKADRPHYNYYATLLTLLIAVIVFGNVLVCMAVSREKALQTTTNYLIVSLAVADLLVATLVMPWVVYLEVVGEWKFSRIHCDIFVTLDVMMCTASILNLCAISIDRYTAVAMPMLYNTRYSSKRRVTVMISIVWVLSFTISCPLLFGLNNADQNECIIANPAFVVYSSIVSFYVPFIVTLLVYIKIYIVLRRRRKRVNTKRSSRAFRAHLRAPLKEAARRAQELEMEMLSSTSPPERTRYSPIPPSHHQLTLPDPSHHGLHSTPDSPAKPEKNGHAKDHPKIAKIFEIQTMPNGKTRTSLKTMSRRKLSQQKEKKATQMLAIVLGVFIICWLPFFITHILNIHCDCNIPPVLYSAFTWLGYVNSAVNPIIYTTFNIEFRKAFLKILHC
Method: as §1, with “Dopamine Subtype D2s” for “adrenergic beta 1”, “Perkin Elmer.” for “Euroscreen.”
Assays were performed in U-bottomed 96-well polypropylene plates. 30 μL [^3H]-spiperone (0.16 nM final concentration) and 30 μL of test compound (10× final concentration) were added to each test well. For each assay plate 8 replicates were obtained for [^3H]-spiperone binding in the presence of 30 μL vehicle (10% (v/v) DMSO in Assay Buffer; defining maximum binding) or 30 μL Haloperidol (10 μM final concentration; defining non-specific binding (NSB)). Membranes were then added to achieve a final volume of 300 μL. […] Five washes with 250 μL wash buffer (50 mM HEPES, 1 mM EDTA, 120 mM NaCl, pH 7.4) were performed at 4° C. to remove unbound radioactivity. […] The plates were sealed (TopSeal A) and filter-bound radioactivity was measured with a scintillation counter (TopCount, Packard BioScience) using a 3-minute counting protocol.
as §2

T1 sequence (P07550 whole entry): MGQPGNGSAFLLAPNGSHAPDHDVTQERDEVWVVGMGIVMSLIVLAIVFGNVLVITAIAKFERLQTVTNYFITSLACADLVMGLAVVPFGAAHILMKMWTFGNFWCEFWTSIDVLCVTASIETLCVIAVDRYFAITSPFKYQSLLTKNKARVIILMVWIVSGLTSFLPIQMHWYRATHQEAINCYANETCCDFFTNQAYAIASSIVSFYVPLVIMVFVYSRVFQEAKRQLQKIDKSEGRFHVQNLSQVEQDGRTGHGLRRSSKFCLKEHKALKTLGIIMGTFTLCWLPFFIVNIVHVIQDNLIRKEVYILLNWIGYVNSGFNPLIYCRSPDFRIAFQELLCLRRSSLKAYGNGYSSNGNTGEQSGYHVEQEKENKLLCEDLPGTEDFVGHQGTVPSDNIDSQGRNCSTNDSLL

- EC50 (Adrenergic β2; H292 cells, cAMP production, 60 minutes at room temperature, 300 μM rolipram, read-out: β2 pEC50 (converted)): 3.98 nM
- β2 Int Act (Adrenergic β2; Intrinsic Activity as a fraction relative to the maximum activity determined for formoterol): 0.92
- IC50 [1]: 2510 nM
- IC50 [2]: 50.1 nM
SMILES: CCCCC[C@@H](C)N(CCNCCc1ccc(O)c2c1OCC(=O)N2)C(=O)CCNCCc1ccccc1 [Example 60, (R)—N-(Heptan-2-yl)-N-(2-(2-(5-hydroxy-3-oxo-3,4-dihydro-2H-benzo[b][1,4]oxazin-8-yl)ethylamino)ethyl)-3-(phenethylamino)propanamide bis(trifluoroacetate)]

Reference: US20120142646A1, “Novel Compounds 621” (priority 2006, published 2012)
